Values quoted from earlier work in patent publication US7195789B2, “Non-fiber extract of psyllium with anti-tumorigenic effects and method for identifying the same” (Board of Trustees of Michigan State University, priority 2002, dated 2007).

Assays:
WB-Ha-ras cells [1] = conditions: WB-Ha-ras cell line; Na et al. 2000
connexin 43 = conditions: Na et al. 2000
WB-Ha-ras cells [2] = conditions: WB-Ha-ras cell line; Na et al. 2000; remark: listed apart in the source
ras protein (p21^ras) = conditions: Na et al. 2000

## O=C(/C=C/c1ccc(O)c(O)c1)OCCc1ccccc1 [CAPE, phenylethyl ester of caffeic acid]
WB-Ha-ras cells [1]
  inhibition of AIG: inhibited AIG
Connexin 43
  expression of hyperphosphorylated Cx43: restored
WB-Ha-ras cells [2]
  restoration of GJIC: restored GJIC
Ras protein (p21^ras)
  protein level of p21^ras by Western blot: decreased
